This note sets out measurements from patent EP0386044B1, “HYPOGLYCAEMIC PEPTIDES” (MONASH UNIVERSITY, priority 1987, dated 1997).

The test system of one assay is rats. Put plainly: Decrease in blood glucose level in rats following intravenous injection of peptides. The settings on record: for hypoglycaemic effect (change in blood glucose level), in words: injection of peptide, Table 2 and Figure 9; for Decrease in blood from basal / Difference from control mean: intravenous injection, peptide 0.5 µmol/100g; for Decrease in blood from basal: change of blood glucose from basal level (4.0 - 4.4 mmol glucose/l) at time 0, control 1.05; for Difference from control mean: difference of blood glucose decrease from control mean (1.05). The assay is classed as in vivo. The source says: Values are changes (means ± SEM) of blood glucose from the basal level (4.0 - 4.4 mmol glucose/l) at time 0. Differences between the control and test groups were statistically evaluated according to Student's t-test. N.S. indicates 2P > 0.05.
Similar results are illustrated graphically in Figure 9.

The subject of the next assay is mice. Put plainly: In vivo testing for insulin-potentiating activity on untrained and trained mice. The settings on record: untrained female mice and untrained or trained male mice, 2.3 or 2.4 mg/kg peptide in 0.2 ml saline, insulin injected at t0; Figures 12 and 13. The procedure: The dotted lines represent control animals (injected with 0.2 ml of saline) in each case. The unbroken lines represent test animals (injected with 2.4 mg/Kg of peptide in 0.2 ml of saline). Insulin was injected at to. • Figure 13 represents in vivo testing of peptides for insulin-potentiating activity on "untrained" and "trained" male mice. The dotted line represents the mean fall in blood glucose for control animals (injected with 0.2 ml of saline). The unbroken line represents the mean fall in blood glucose for test animals, injected with 2.3 mg/kg of peptide in 0.2 ml of saline, except for (a), in which the dose was 2.4 mg/kg. • (a) Pep 6-13 (Gln^11Asp^12), "untrained" • (b) Pep 6-13 (Gln^11Asp^12), "trained" • (c) Pep 6-13 (Asn^11Asp^12), "trained" • (d) Pep 6-13 (Asp^12), "trained" Insulin was injected at to.
The dose of Pep (6-13) was 200 µg/Kg body weight. Similarly, various forms of the peptide according to the invention in its β imide form potentiate the hypoglycaemic effect of insulin on "untrained" male and female mice. The effect on trained male mice trained to feed on schedule as described above was less striking, but still significant in some cases.

The subject of assay [1] is cultured muscle cells (L6 rat skeletal muscle cell line). Put plainly: Cultured cell assay for stimulation of glucose uptake. Particulars: peptide 10µg/ml. The assay is classed as cell-based. From the text:
In these assays collagenase-dispersed rat adipocytes, cultured muscle cells (L6 rat skeletal muscle cell line) and hemidiaphragm preparations were employed.
The effect of the β imide form peptides on glucose metabolism is further shown by their ability to stimulate glucose uptake and glycogen synthesis by cultured muscle cells and isolated rat hemidiaphragms.

Where no end group is shown, it is not given here. [ ]: non-standard residue; d: D form.

As to “Pep (6-13) Ala^11 α form: variant Ala^11 of Pep (6-13), α form (LSRLFANA; UniProt P01241 32-39, looked up, variant D11A)”, the “hypoglycaemic effect (change in blood glucose level), in words” value in the assay on rats was “inactive”.
As to “Pep (9-13): synthetic peptide corresponding to residues 9-13 of human growth hormone, α form (LFDNA; UniProt P01241 35-39, looked up, fragment)”, in the assay on rats, the “hypoglycaemic effect (change in blood glucose level), in words” value is reported as “neither the α form nor the β imide form was active”; the “Decrease in blood from basal” value is reported as 1.12; the “Difference from control mean” value turned out to be 0.07.
Turning to “Pep (6-12): synthetic peptide corresponding to residues 6-12 of human growth hormone, α form (LSRLFDN; UniProt P01241 32-38, looked up, fragment)”, in the assay on rats, the “hypoglycaemic effect (change in blood glucose level), in words” value is reported as “active only in the β imide form”; the “Decrease in blood from basal” value was determined as 1.00; the “Difference from control mean” value is given as -0.05.
As to “Pep (6-15): synthetic peptide corresponding to residues 6-15 of human growth hormone, α form (LSRLFDNAML; UniProt P01241 32-41, looked up, fragment)”, in the assay with rats, the “hypoglycaemic effect (change in blood glucose level), in words” value is given as “active only in the β imide form”; the “Decrease in blood from basal” value came out at 1.26; the “Difference from control mean” value is recorded as 0.21.
Consider “Pep (6-13) Gly^10 α form: variant Gly^10 of Pep (6-13), α form (LSRLGDNA; UniProt P01241 32-39, looked up, variant F10G)”, for which the “hypoglycaemic effect (change in blood glucose level), in words” value in the assay with rats is “inactive”.
For “L-α-Asp at position 11 in hGH[6-13]: inactive control peptide, hGH[6-13] with L-α-Asp at position 11 and Asp at 12 (LSRLFDDA; UniProt P01241 32-39, looked up, variant N12D)”, in the assay on mice, the insulin-potentiating activity entry was “inactive”.
As for “Pep (6-13) Tyr^10 α form: variant Tyr^10 of Pep (6-13), α form (LSRLYDNA; UniProt P01241 32-39, looked up, variant F10Y)”, the “hypoglycaemic effect (change in blood glucose level), in words” value in the assay with rats is “inactive”.
On the same count and under the same terms, the result for “Pep (6-13) Pro^11 α form: variant Pro^11 of Pep (6-13), α form (LSRLFPNA; UniProt P01241 32-39, looked up, variant D11P)” reads “inactive”.
On the same count and under the same terms, with “Pep (6-13) Gly^10Pro^11 α form: variant Gly^10Pro^11 of Pep (6-13), α form (LSRLGPNA; UniProt P01241 32-39, looked up, variant F10G D11P)” the entry was “inactive”.
As for LSRL[dF]DNA [Pep P057], in assay [1], the “Rate of Increase from Basal” value was 2.0 µmol glucose/hour.
